Laboratory results reported in patent US7317040B2, “Nitric oxide synthase inhibitor phosphate salt” (SmithKline Beecham Corporation, priority 2000, dated 2008).

Test: Hygroscopicity: % weight change (w/w) against target relative humidity at 25 degrees C (moisture sorption isotherm)
Type: physicochemical
Experimental: The hygroscopicities of three samples of the compound of formula (I) monohydrate prepared in accordance with the above method were tested by measuring their % weight change (w/w) over a target relative humidity band of 0 to 90% at 25 degrees C.
To make these measurements, the following instruments and parameters were used: • Hiden IGASORP, Serial: IGA SA-040; • Hiden Intelligent Analyser, Model: HAS-022-120E, Serial: HALIGA-0042; • Flow=495 ml/min
The hydroscopicity of a sample of the compound of formula (I) trihydrate prepared in accordance with the above method was tested by measuring % weight change (w/w) over a target relative humidity band of 0 to 90% at 25° C.
The hygroscopicity of a sample of the dihydrochloride salt prepared in accordance with the above method was tested by measuring its % weight change (w/w) over a target relative humidity band of 30 to 80% at 25 degrees C.

Structure (SMILES)	uptake of atmospheric moisture (below a relative humidity of 70%, three samples, FIGS. 1 to 3)	uptake of atmospheric moisture (above 50% relative humidity, FIG. 4)	mass change (at 55% relative humidity)	mass change (at 60% relative humidity)	mass change (at 65% relative humidity)	mass change (over a relative humidity range of 30-75%)
CC(=N)NCCSCC[C@H](N)C(=O)O.O.O=P(O)(O)O [compound of formula (I) monohydrate, (2S)-2-amino-4-{[2-(ethanimidoylamino)ethyl]thio}butanoic acid, compound with phosphoric acid, monohydrate]	no significant uptake of atmospheric moisture					
CC(=N)NCCSCC[C@H](N)C(=O)O.Cl [dihydrochloride salt, (2S)-2-amino4-{[2-(ethanimidoylamino)ethyl]thio}butanoic acid, compound with hydrochloric acid]		rapid uptake of atmospheric moisture	about 11%	about 24%	about 32%	about 47%
